Values joined by “and” are separate entries in the source; they are usually repeats but may differ in a detail not shown here. Equal entries are not always repeated.
Assays:
Test in all cases: PDSP GPCR panel primary binding assays at 10 μM
[1] = biological target: T1, cloned human or rodent CNS receptors, channels, and transporters (PDSP panel) (Homo sapiens, UniProt P28223); settings: 5-HT2A, primary assay
T1 construct: expressed in transfected cells
In short: (§1)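 Each compound is first screened once at 10 μM, in quadruplicate, for radioligand displacement. Where mean displacement passes 50%, an 11-point dose-response in triplicate follows at that target, except at H3, PBR and GABAA.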

[2] = biological target: T2, cloned human or rodent CNS receptors, channels, and transporters (PDSP panel) (Homo sapiens, UniProt P21918); settings: D5, primary assay
T2 construct: expressed in transfected cells
T2 sequence (P21918 whole entry): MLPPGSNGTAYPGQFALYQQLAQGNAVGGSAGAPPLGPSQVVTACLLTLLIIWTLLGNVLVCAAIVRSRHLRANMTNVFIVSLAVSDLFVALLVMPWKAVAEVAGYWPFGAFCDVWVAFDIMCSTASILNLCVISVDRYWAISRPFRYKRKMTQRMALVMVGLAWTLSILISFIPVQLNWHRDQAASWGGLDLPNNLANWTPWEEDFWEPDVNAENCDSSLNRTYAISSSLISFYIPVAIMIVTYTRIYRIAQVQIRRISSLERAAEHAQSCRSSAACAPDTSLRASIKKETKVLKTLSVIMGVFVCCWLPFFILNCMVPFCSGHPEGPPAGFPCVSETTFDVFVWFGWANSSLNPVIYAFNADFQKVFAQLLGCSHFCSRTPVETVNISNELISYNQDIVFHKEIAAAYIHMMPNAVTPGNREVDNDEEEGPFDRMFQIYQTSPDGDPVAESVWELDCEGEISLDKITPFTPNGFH
In short: as §1

[3] = biological target: T3, cloned human or rodent CNS receptors, channels, and transporters (PDSP panel) (Homo sapiens, UniProt P35367); settings: H1, primary assay
T3 construct: expressed in transfected cells
T3 sequence (P35367 whole entry): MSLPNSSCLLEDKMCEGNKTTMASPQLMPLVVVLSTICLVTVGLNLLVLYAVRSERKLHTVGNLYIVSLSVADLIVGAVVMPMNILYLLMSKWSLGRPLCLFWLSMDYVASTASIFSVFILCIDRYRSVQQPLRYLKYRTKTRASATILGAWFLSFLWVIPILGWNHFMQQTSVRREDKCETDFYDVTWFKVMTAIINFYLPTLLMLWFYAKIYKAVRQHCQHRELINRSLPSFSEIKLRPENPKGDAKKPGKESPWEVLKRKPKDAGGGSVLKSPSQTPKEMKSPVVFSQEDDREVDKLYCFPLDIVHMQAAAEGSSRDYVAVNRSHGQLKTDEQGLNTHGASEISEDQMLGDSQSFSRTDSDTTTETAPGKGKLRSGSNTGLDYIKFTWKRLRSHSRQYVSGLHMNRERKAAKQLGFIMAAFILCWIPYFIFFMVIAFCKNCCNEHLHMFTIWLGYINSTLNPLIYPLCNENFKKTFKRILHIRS
In short: as §1

[4] = biological target: T4, cloned human or rodent CNS receptors, channels, and transporters (PDSP panel) (Homo sapiens, UniProt P11229); settings: M1, primary assay
T4 construct: expressed in transfected cells
T4 sequence (P11229 1-460): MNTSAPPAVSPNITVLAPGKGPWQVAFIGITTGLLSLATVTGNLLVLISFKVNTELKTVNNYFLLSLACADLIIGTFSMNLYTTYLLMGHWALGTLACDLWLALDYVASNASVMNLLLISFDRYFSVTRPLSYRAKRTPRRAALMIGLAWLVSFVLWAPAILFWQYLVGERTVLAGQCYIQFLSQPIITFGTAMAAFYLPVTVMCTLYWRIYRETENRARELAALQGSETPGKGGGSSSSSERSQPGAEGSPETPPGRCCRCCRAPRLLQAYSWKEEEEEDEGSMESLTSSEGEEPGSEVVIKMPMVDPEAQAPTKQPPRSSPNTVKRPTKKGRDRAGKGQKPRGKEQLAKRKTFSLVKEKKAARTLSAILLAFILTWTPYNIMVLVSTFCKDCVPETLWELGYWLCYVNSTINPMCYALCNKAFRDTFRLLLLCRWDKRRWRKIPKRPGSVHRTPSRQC
In short: as §1

[5] = biological target: T5, cloned human or rodent CNS receptors, channels, and transporters (PDSP panel) (Homo sapiens, UniProt P21728); settings: D1, primary assay
T5 construct: expressed in transfected cells
T5 sequence (P21728 whole entry): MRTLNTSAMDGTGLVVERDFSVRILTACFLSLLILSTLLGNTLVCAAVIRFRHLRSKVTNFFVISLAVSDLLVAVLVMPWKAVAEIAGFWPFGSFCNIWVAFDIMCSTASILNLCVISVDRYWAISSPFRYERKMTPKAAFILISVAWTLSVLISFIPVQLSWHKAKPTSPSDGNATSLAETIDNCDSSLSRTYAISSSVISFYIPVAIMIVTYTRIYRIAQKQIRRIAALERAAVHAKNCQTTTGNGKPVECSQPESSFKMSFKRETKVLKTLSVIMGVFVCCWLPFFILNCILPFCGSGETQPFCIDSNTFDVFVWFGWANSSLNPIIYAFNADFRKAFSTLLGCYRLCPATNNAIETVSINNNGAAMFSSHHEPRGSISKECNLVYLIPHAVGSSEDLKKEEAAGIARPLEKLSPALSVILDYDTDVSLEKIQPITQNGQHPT
In short: as §1

[6] = biological target: T6, cloned human or rodent CNS receptors, channels, and transporters (PDSP panel) (Homo sapiens, UniProt P34969); settings: 5-HT7A, primary assay
T6 construct: expressed in transfected cells
T6 sequence (P34969 whole entry): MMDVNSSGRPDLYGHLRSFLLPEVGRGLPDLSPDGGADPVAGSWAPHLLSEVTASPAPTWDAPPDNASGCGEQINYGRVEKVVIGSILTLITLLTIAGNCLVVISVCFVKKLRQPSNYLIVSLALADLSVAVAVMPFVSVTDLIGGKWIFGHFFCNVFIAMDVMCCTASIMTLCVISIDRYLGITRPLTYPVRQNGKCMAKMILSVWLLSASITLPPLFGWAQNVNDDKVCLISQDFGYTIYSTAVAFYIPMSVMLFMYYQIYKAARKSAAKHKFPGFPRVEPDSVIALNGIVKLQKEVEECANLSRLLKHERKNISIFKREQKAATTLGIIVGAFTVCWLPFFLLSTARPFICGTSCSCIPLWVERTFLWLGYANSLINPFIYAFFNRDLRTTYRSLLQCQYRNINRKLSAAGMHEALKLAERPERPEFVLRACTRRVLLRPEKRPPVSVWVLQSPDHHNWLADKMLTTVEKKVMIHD
In short: as §1

[7] = biological target: T7, cloned human or rodent CNS receptors, channels, and transporters (PDSP panel) (Rattus norvegicus, UniProt P16257); settings: PBR, primary assay
T7 construct: expressed in transfected cells
In short: as §1

[8] = biological target: T8, cloned human or rodent CNS receptors, channels, and transporters (PDSP panel) (Homo sapiens, UniProt P41145); settings: KOR, primary assay
T8 construct: expressed in transfected cells
T8 sequence (P41145 whole entry): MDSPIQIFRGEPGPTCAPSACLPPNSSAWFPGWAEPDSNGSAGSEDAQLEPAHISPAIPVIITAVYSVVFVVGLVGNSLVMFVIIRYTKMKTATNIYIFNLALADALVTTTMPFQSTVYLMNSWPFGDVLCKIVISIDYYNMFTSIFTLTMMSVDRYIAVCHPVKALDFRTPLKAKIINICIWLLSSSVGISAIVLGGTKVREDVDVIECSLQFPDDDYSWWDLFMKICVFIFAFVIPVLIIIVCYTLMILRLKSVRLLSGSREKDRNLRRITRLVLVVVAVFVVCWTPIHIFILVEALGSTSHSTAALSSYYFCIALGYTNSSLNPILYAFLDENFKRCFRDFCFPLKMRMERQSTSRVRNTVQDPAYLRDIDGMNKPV
In short: as §1

[9] = tested on: cloned human or rodent CNS receptors, channels, and transporters (PDSP panel); settings: primary assay; for Mean %: mean inhibition; for Inhibition 1: replicate 1; for Inhibition 2: replicate 2; for Inhibition 3: replicate 3; for Inhibition 4: replicate 4
In short: as §1

[10] = biological target: T9, cloned human or rodent CNS receptors, channels, and transporters (PDSP panel) (Homo sapiens, UniProt P14416); settings: D2, primary assay
T9 construct: expressed in transfected cells
T9 sequence (P14416 whole entry): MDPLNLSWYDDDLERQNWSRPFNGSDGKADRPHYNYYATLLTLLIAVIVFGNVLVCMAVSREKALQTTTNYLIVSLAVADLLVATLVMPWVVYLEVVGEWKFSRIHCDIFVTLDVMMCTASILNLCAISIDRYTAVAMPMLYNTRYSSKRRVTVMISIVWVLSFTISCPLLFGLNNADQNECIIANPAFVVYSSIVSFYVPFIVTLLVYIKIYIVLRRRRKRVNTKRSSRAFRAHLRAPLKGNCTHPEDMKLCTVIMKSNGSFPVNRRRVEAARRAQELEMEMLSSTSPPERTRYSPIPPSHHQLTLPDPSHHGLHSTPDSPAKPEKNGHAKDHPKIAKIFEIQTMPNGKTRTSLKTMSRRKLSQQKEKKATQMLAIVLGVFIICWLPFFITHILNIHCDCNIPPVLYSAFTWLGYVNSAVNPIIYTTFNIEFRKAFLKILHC
In short: as §1

T1 sequence (P28223 whole entry): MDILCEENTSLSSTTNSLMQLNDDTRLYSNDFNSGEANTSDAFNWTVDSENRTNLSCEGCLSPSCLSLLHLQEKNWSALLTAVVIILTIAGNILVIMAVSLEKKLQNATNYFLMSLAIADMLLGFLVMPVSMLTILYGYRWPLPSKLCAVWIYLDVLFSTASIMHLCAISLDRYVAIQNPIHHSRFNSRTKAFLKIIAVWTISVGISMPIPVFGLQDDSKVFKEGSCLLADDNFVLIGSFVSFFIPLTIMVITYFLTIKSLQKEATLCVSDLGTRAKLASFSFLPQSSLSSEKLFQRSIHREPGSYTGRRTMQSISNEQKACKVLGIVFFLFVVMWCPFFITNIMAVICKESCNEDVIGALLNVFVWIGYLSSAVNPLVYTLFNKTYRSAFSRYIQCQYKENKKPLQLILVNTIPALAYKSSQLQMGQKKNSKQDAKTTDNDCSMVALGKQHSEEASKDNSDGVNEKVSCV

CCC(=O)N1CCC(NC(=O)Nc2ccc(OC(F)(F)F)cc2)CC1 [UNC10302681A, TPPU]
Mean % ([1]; mean inhibition): -2.37%
Inhibition 1 ([1]; replicate 1): 0.31%
Inhibition 2 ([1]; replicate 2): -4.96%
Inhibition 3 ([1]; replicate 3): -8.74%
Inhibition 4 ([1]; replicate 4): 3.92%
Mean % ([2]; mean inhibition): -7.53%
Inhibition 1 ([2]; replicate 1): -6.27%
Inhibition 2 ([2]; replicate 2): -1.22%
Inhibition 3 ([2]; replicate 3): -4.28%
Inhibition 4 ([2]; replicate 4): -18.34%
Mean % ([3]; mean inhibition): 74.57%
Inhibition 1 ([3]; replicate 1): 97.51%
Inhibition 2 ([3]; replicate 2): 87.07%
Inhibition 3 ([3]; replicate 3): 65.55%
Inhibition 4 ([3]; replicate 4): 48.14%
Mean % ([4]; mean inhibition): -5.22%
Inhibition 1 ([4]; replicate 1): 4.61%
Inhibition 2 ([4]; replicate 2): -16.27%
Inhibition 3 ([4]; replicate 3): -3.29%
Inhibition 4 ([4]; replicate 4): -5.93%
Mean % ([5]; mean inhibition): -1.82%
Inhibition 1 ([5]; replicate 1): -5.26%
Inhibition 2 ([5]; replicate 2): -2.83%
Inhibition 3 ([5]; replicate 3): -3.8%
Inhibition 4 ([5]; replicate 4): 4.61%
Mean % ([6]; mean inhibition): 28.67%
Inhibition 1 ([6]; replicate 1): 34.17%
Inhibition 2 ([6]; replicate 2): 16.81%
Inhibition 3 ([6]; replicate 3): 23.63%
Inhibition 4 ([6]; replicate 4): 40.05%
Mean % ([7]; mean inhibition): 4.31% and 5.42%
Inhibition 1 ([7]; replicate 1): 20.73% and 18.86%
Inhibition 2 ([7]; replicate 2): -4.07% and -6.82%
Inhibition 3 ([7]; replicate 3): -2.57% and 2.75%
Inhibition 4 ([7]; replicate 4): 3.14% and 6.9%
Mean % ([8]; mean inhibition): -14.38%
Inhibition 1 ([8]; replicate 1): -11.64%
Inhibition 2 ([8]; replicate 2): -17.46%
Inhibition 3 ([8]; replicate 3): -11.75%
Inhibition 4 ([8]; replicate 4): -16.68%
Mean % ([9]; Alpha1A): -2.01%
Inhibition 1 ([9]; Alpha1A): 4.58%
Inhibition 2 ([9]; Alpha1A): -5.33%
Inhibition 3 ([9]; Alpha1A): -5.52%
Inhibition 4 ([9]; Alpha1A): -1.78%
Mean % ([9]; Alpha2A): -5.2%
Inhibition 1 ([9]; Alpha2A): -1.74%
Inhibition 2 ([9]; Alpha2A): -8.16%
Inhibition 3 ([9]; Alpha2A): -13.09%
Inhibition 4 ([9]; Alpha2A): 2.19%
Mean % ([9]; Alpha2C): -0.34%
Inhibition 1 ([9]; Alpha2C): 3.18%
Inhibition 2 ([9]; Alpha2C): -3.57%
Inhibition 3 ([9]; Alpha2C): 7.34%
Inhibition 4 ([9]; Alpha2C): -8.31%
Mean % ([9]; BZP Rat Brain Site): 9.51%
Inhibition 1 ([9]; BZP Rat Brain Site): 23.2%
Inhibition 2 ([9]; BZP Rat Brain Site): 7.09%
Inhibition 3 ([9]; BZP Rat Brain Site): 1.4%
Inhibition 4 ([9]; BZP Rat Brain Site): 6.33%
Mean % ([9]; DOR): -1.52%
Inhibition 1 ([9]; DOR): 6.89%
Inhibition 2 ([9]; DOR): -4.86%
Inhibition 3 ([9]; DOR): -4.68%
Inhibition 4 ([9]; DOR): -3.41%
Mean % ([9]; GABAA): -2.31% and -7.5%
Inhibition 1 ([9]; GABAA): 16.54% and 5.88%
Inhibition 2 ([9]; GABAA): -7.12% and -3.31%
Inhibition 3 ([9]; GABAA): -2.68% and -32.5%
Inhibition 4 ([9]; GABAA): -15.99% and -0.07%
Mean % ([9]; H3): 21.21%
Inhibition 1 ([9]; H3): 28.2%
Inhibition 2 ([9]; H3): 25.87%
Inhibition 3 ([9]; H3): 12.17%
Inhibition 4 ([9]; H3): 18.58%
Mean % ([9]; H4): -7.02%
Inhibition 1 ([9]; H4): -3.06%
Inhibition 2 ([9]; H4): -20.34%
Inhibition 3 ([9]; H4): -7.38%
Inhibition 4 ([9]; H4): 2.7%
Mean % ([9]; Sigma 1): 19.57%
Mean % ([9]; Sigma 2): 21.21%
Mean % ([10]; mean inhibition): -2.08%
Inhibition 1 ([10]; replicate 1): 8.4%
Inhibition 2 ([10]; replicate 2): -12.22%
Inhibition 3 ([10]; replicate 3): -3.46%
Inhibition 4 ([10]; replicate 4): -1.03%

— article PMC9005681, “Use of AD Informer Set compounds to explore validity of novel targets in Alzheimer's disease pathology” (Alzheimer's & Dementia : Translational Research & Clinical …, 2022)
